This note sets out measurements from patent US8207204B2, “Triazole derivatives as SCD inhibitors” (GlaxoSmithKline LLC, priority 2007, dated 2012).

A word on the melting point: it is the temperature of the solid-liquid transition.

SMILES strings stand for the structures. Counter-ions that a name gives are not always drawn.

`COc1ccc2nc(NC(=O)c3nnn(Cc4ccc(Cl)c(Cl)c4)c3C)sc2c1` showed a melting point of 225 °C.
Take `Cc1c(C(=O)Nc2nc3[nH]c(=O)[nH]c(=O)c3s2)nnn1Cc1ccc(Cl)c(Cl)c1`: the melting point is 279.9 °C.
With `Cc1nc(NC(=O)c2nnn(Cc3ccc(Cl)c(Cl)c3)c2C)sc1C(=O)NCCN(C)C.Cl` the figure was 121 °C; with `Cc1nc(NC(=O)c2nnn(Cc3ccc(Cl)c(Cl)c3)c2C)sc1C(=O)N(C)C` (as salt: hydrochloride) [Example 28, 1-[(3,4-Dichlorophenyl)methyl]-N-{5-[(dimethylamino)carbonyl]-4-methyl-1,3-thiazo1-2-yl}-5-methyl-1H-1,2,3-triazole-4-carboxamide], 144 °C; with `CCOC(=O)c1nnc(NC(=O)c2nnn(Cc3ccc(Cl)c(Cl)c3)c2C)s1` [Example 3, Ethyl 5-[({1-[(3,4-dichlorophenyl)methyl]-5-methyl-1H-1,2,3-triazol-4-yl}carbonyl)amino]-1,3,4-thiadiazole-2-carboxylate], 203.8 °C.
`COC(=O)c1cnc(NC(=O)c2nnn(Cc3ccc(Cl)c(Cl)c3)c2C)s1` [Example 4, Methyl 2-[({1-[(3,4-dichlorophenyl)methyl]-5-methyl-1H-1,2,3-triazol-4-yl}carbonyl)amino]-1,3-thiazole-5-carboxylate] had a melting point of 212 °C.
In turn, `Cc1c(C(=O)Nc2ncc(C=O)s2)nnn1Cc1ccc(Cl)c(Cl)c1` [Example 5, 1-[(3,4-Dichlorophenyl)methyl]-N-(5-formyl-1,3-thiazol-2-yl)-5-methyl-1H-1,2,3-triazole-4-carboxamide] had a melting point of more than 260 °C.
With `Cc1nnc(NC(=O)c2nnn(Cc3ccc(Cl)c(Cl)c3)c2C)o1` [Example 6, 1-[(3,4-Dichlorophenyl)methyl]-5-methyl-N-(5-methyl-1,3,4-oxadiazol-2-yl)-1H-1,2,3-triazole-4-carboxamide] the figure was 192.2 °C.
With `COCc1nnc(NC(=O)c2nnn(Cc3ccc(Cl)c(Cl)c3)c2C)s1` [Example 7, 1-[(3,4-Dichlorophenyl)methyl]-5-methyl-N-{5-[(methyloxy)methyl]-1,3,4-thiadiazo1-2-yl}-1H-1,2,3-triazole-4-carboxamide] the figure was 178.3 °C; with `COC(=O)Cc1csc(NC(=O)c2nnn(Cc3ccc(Cl)c(Cl)c3)c2C)n1` [Example 8, Methyl {2-[({1-[(3,4-dichlorophenyl)methyl]-5-methyl-1H-1,2,3-triazol-4-yl}carbonyl)amino]-1,3-thiazol-4-yl}acetate], 158 °C; with `CCOC(=O)c1sc(NC(=O)c2nnn(Cc3ccc(Cl)c(Cl)c3)c2C)nc1C(F)(F)F` [Example 9, Ethyl 2-[({1-[(3,4-dichlorophenyl)methyl]-5-methyl-1H-1,2,3-triazol-4-yl}carbonyl)amino]-4-(trifluoromethyl)-1,3-thiazole-5-carboxylate], 155 °C.
With `Cc1nc(NC(=O)c2nnn(Cc3ccc(Cl)c(Cl)c3)c2C)sc1C` [Example 10, 1-[(3,4-Dichlorophenyl)methyl]-N-(4,5-dimethyl-1,3-thiazol-2-yl)-5-methyl-1H-1,2,3-triazole-4-carboxamide] the figure was 210.4 °C.
`CCOC(=O)c1ccc2nc(NC(=O)c3nnn(Cc4ccc(Cl)c(Cl)c4)c3C)sc2c1` [Example 11, Ethyl 2-[({1-[(3,4-dichlorophenyl)methyl]-5-methyl-1H-1,2,3-triazol-4-yl}carbonyl)amino]-1,3-benzothiazole-6-carboxylate] displayed a melting point of 199 °C.
The molecule `CCOC(=O)Cc1nc(NC(=O)c2nnn(Cc3ccc(Cl)c(Cl)c3)c2C)sc1C` [Example 12, Ethyl {2-[({1-[(3,4-dichlorophenyl)methyl]-5-methyl-1H-1,2,3-triazol-4-yl}carbonyl)amino]-5-methyl-1,3-thiazol-4-yl}acetate] gave a melting point of 125 °C.
Take `COC(=O)c1ccc(NC(=O)c2nnn(Cc3ccc(Cl)c(Cl)c3)c2C)nc1` [Example 14, Methyl 6-[({1-[(3,4-dichlorophenyl)methyl]-5-methyl-1H-1,2,3-triazol-4-yl}carbonyl)amino]-3-pyridinecarboxylate]: the melting point came to 179 °C.
The molecule `COC(=O)c1ccnc(NC(=O)c2nnn(Cc3ccc(Cl)c(Cl)c3)c2C)c1` [Example 15, Methyl 2-[({1-[(3,4-dichlorophenyl)methyl]-5-methyl-1H-1,2,3-triazol-4-yl}carbonyl)amino]-4-pyridinecarboxylate] yielded a melting point of 172 °C.
With `Cc1nc(NC(=O)c2nnn(Cc3ccc(Cl)c(Cl)c3)c2C)sc1C(=O)O` [Example 16, 2-[({1-[(3,4-Dichlorophenyl)methyl]-5-methyl-1H-1,2,3-triazol-4-yl}carbonyl)amino]-4-methyl-1,3-thiazole-5-carboxylic acid] the figure was 262.6 °C; with `Cc1c(C(=O)Nc2ncc(C(=O)O)o2)nnn1Cc1ccc(Cl)c(Cl)c1` [Example 17, 2-[({1-[(3,4-Dichlorophenyl)methyl]-5-methyl-1H-1,2,3-triazol-4-yl}carbonyl)amino]-1,3-oxazole-5-carboxylic acid], 201.8 °C.
Turning to `CNC(=O)c1sc(NC(=O)c2nnn(Cc3ccc(Cl)c(Cl)c3)c2C)nc1C` [Example 18, 1-[(3,4-Dichlorophenyl)methyl]-5-methyl-N-{4-methyl-5-[(methylamino)carbonyl]-1,3-thiazol-2-yl}-1H-1,2,3-triazole-4-carboxamide], the melting point came out at 218.5 °C.
As to `Cc1nc(NC(=O)c2nnn(Cc3ccc(Cl)c(Cl)c3)c2C)sc1C(=O)NCCC(C)C` [Example 19, 1-[(3,4-Dichlorophenyl)methyl]-5-methyl-N-(4-methyl-5-{[(3-methylbutyl)amino]carbonyl}-1,3-thiazol-2-yl)-1H-1,2,3-triazole-4-carboxamide], the melting point worked out at 174.3 °C.
With `Cc1nc(NC(=O)c2nnn(Cc3ccc(Cl)c(Cl)c3)c2C)sc1C(=O)NC(C)C` [Example 20, 1-[(3,4-Dichlorophenyl)methyl]-5-methyl-N-(4-methyl-5-{[(1-methylethyl)amino]carbonyl}-1,3-thiazol-2-yl)-1H-1,2,3-triazole-4-carboxamide], the melting point is 204.4 °C.
For `CCNC(=O)c1sc(NC(=O)c2nnn(Cc3ccc(Cl)c(Cl)c3)c2C)nc1C` [Example 21, 1-[(3,4-Dichlorophenyl)methyl]-N-{5-[(ethylamino)carbonyl]-4-methyl-1,3-thiazol-2-yl}-5-methyl-1H-1,2,3-triazole-4-carboxamide], the melting point came to 194.1 °C.
As to `Cc1c(C(=O)Nc2ncc(C(=O)NCCC(C)C)s2)nnn1Cc1ccc(Cl)c(Cl)c1` [Example 23], the melting point was 259.3 °C.
The molecule `Cc1nc(NC(=O)c2nnn(Cc3ccc(Cl)c(Cl)c3)c2C)sc1C(=O)N1CCOCC1` [Example 24, 1-[(3,4-Dichlorophenyl)methyl]-5-methyl-N-[4-methyl-5-(4-morpholinyl-carbonyl)-1,3-thiazol-2-yl]-1H-1,2,3-triazole-4-carboxamide] gave a melting point of 202.9 °C.
In the case of `Cc1nc(NC(=O)c2nnn(Cc3ccc(Cl)c(Cl)c3)c2C)sc1C(=O)N1CCN(C)CC1` [Example 25, 1-[(3,4-Dichlorophenyl)methyl]-5-methyl-N-{4-methyl-5-[(4-methyl-1-piperazinyl)carbonyl]-1,3-thiazo1-2-yl}-1H-1,2,3-triazole-4-carboxamide] it was 216.9 °C; in that of `COCCNC(=O)c1sc(NC(=O)c2nnn(Cc3ccc(Cl)c(Cl)c3)c2C)nc1C` [Example 26, 1-[(3,4-Dichlorophenyl)methyl]-5-methyl-N-[4-methyl-5-({[2-(methyloxy)ethyl]amino}carbonyl)-1,3-thiazol-2-yl]-1H-1,2,3-triazole-4-carboxamide], 129 °C.
For the molecule `Cc1nc(NC(=O)c2nnn(Cc3ccc(Cl)c(Cl)c3)c2C)sc1C(=O)NCCO` [Example 27, 1-[(3,4-Dichlorophenyl)methyl]-N-(5-{[(2-hydroxyethyl)-amino]carbonyl}-4-methyl-1,3-thiazol-2-yl)-5-methyl-1H-1,2,3-triazole-4-carboxamide], the melting point worked out at 166 °C.
In the case of `CNC(=O)c1cnc(NC(=O)c2nnn(Cc3ccc(Cl)c(Cl)c3)c2C)s1` [Example 29, 1-[(3,4-Dichlorophenyl)methyl]-5-methyl-N-{5-[(methylamino)carbonyl]-1,3-thiazol-2-yl}-1H-1,2,3-triazole-4-carboxamide] it was 335.6 °C; in that of `Cc1c(C(=O)Nc2ncc(C(=O)N(C)C)s2)nnn1Cc1ccc(Cl)c(Cl)c1` [Example 30, 1-[(3,4-Dichlorophenyl)methyl]-N-{5-[(dimethylamino)carbonyl]-1,3-thiazol-2-yl}-5-methyl-1H-1,2,3-triazole-4-carboxamide], 304.9 °C.
With `Cc1c(C(=O)Nc2ncc(C(=O)NCCO)s2)nnn1Cc1ccc(Cl)c(Cl)c1` [Example 31, 1-[(3,4-Dichlorophenyl)methyl]-N-(5-{[(2-hydroxyethyl)-amino]carbonyl}-1,3-thiazol-2-yl)-5-methyl-1H-1,2,3-triazole-4-carboxamide] the figure was 260.4 °C; with `CNC(=O)c1ccnc(NC(=O)c2nnn(Cc3ccc(Cl)c(Cl)c3)c2C)c1` [Example 32, 2-[({1-[(3,4-Dichlorophenyl)methyl]-5-methyl-1H-1,2,3-triazol-4-yl}carbonyl)amino]-N-methyl-4-pyridine-carboxamide], 234.1 °C.
With `CCNC(=O)c1sc(NC(=O)c2cn(Cc3ccc(Cl)c(Cl)c3)nn2)nc1C` [Example 33, 1-[(3,4-Dichlorophenyl)methyl]-N-{5-[(ethylamino)carbonyl]-4-methyl-1,3-thiazo1-2-yl}-1H-1,2,3-triazole-4-carboxamide] the figure was 210.6 °C.
With `CNC(=O)c1sc(NC(=O)c2cn(Cc3ccc(Cl)c(Cl)c3)nn2)nc1C` [Example 34, 1-[(3,4-Dichlorophenyl)methyl]-N-{4-methyl-5-[(methylamino)carbonyl]-1,3-thiazol-2-yl}-1H-1,2,3-triazole-4-carboxamide], the melting point is 210.4 °C.
